This note sets out measurements from patent US8227604B2, “Hybrid 2-aminotetralin and aryl-substituted piperazine compounds and their use in altering CNS activity” (Wayne State University, priority 2001, dated 2012).

Some results are limits rather than exact numbers.

The target of assay [1] is T1, D3 receptor (Homo sapiens, UniProt P35462). Put plainly: Inhibition constants for binding to cloned D3 receptor expressed in HEK cells, [3H]spiperone. To be noted: D3 expressed in HEK cells. The procedure:
(§1) Inhibition constants for binding to cloned D2L and D3 receptors expressed in HEK cells by displacing [^3H] spiperone were measured for several compounds.

For a further assay, the target named is T2, 5HT2C receptor (Homo sapiens, UniProt P28335).
T2 construct: expressed in transfected cells
T2 sequence (P28335 33-458): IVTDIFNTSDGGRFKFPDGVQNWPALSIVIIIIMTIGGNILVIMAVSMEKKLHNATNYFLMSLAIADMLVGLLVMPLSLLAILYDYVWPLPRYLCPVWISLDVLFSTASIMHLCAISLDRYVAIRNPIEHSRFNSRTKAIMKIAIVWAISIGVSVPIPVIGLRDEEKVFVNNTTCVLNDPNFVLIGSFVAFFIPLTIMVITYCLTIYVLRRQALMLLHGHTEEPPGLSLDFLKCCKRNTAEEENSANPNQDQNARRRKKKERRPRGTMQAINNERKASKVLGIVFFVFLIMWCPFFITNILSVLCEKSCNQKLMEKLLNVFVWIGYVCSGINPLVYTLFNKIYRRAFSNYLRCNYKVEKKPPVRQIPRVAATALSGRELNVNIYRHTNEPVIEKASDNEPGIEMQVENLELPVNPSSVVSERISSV
Put plainly: Binding affinity at cloned human 5HT2C receptor, [3H]Mesulergine.

Assay [2] has as its target T3, D2 receptor (Homo sapiens, UniProt P14416).
T3 construct: expressed in transfected cells
Put plainly: Binding affinity at cloned human D2 receptor, [3H]YM-09151-2 (CHOp-D2 cells). The protocol:
(§2) CHOp-cells (human receptors) are grown to confluence in a minimum essential medium (α MEM) containing 10% fetal calf serum, 0.05% pen-strep, and 600 μg/ml of G418. The cells are scraped from the 100 by 20 mm plates and centrifuged at 500. g for 5 min. The pellet is homogenized by polytron in 50 mM Tris-HCl, pH 7.7, and centrifuged at 27,000·G for 12 min. The pellet is resuspended in 50 mM Tris, D2 at 5 mg protein/ml, D3 at 1 mg protein/ml, and stored at −70° C. in 1-ml aliquots.
(§3) On the day of the experiment, CHOp-D2 or CHOp-D3 cells are thawed, resuspended in 50 mM Tris, and centrifuged at 27,000·G for 12 min. The pellet is then resuspended at 5 mg protein/80 ml (D2) and 1 mg protein/80 ml (D3) in 50 mM Tris containing 120 mM of NaCl, 5 mM of KCl, 1.5 mM of CaCl2, 4 mM of MgCl2, and 1 mM of EDTA, pH 7.4. […] Nonspecific binding is determined with 1 mM of chlorpromazine. The plates are incubated at 25° C. for 60 min before filtration and counted as usual. The filters are soaked in 0.1% PEI before filtering.

The target in a further assay is T4, D1 receptor (Homo sapiens, UniProt P21728).
T4 construct: expressed in transfected cells; host or cells: LHD1 cells
T4 sequence (P21728 whole entry): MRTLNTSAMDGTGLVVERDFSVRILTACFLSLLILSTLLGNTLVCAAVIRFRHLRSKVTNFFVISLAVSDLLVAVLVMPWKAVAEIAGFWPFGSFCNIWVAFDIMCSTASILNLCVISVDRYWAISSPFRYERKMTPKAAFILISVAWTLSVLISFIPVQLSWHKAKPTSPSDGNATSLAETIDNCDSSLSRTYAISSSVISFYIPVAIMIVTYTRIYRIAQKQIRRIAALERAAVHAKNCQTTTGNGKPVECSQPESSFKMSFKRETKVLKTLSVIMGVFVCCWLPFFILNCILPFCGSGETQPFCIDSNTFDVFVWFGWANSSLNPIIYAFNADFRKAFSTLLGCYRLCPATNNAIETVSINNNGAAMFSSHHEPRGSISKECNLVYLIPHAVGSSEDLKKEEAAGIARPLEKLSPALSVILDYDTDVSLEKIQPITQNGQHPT
The assay can be described thus: Binding affinity at cloned human D1 receptor, [3H]SCH23390 (LHD1 cells). The procedure: LHD1 cells (human receptor) are grown and prepared as described for the HA7 cells as described hereafter. The final pellet is resuspended at 5 mg protein/80 ml in 50 mM Tris-HCl containing 120 mM of NaCl, 5 mM of KCl, 2 mM of CaCl2, and 1 mM of MgCl2, pH 7.4. To wells containing 100 μl of test drug or buffer and […] of [^3H]SCH 23390 (0.18 nM final conc.), is added 0.8 ml of cell homogenate (0.05 mg protein/well), and the plates are incubated at […] for 60 min. Nonspecific binding is determined with 1 μM of SCH 23390.

A further assay deals with T5, 5HT1A receptor (Homo sapiens, UniProt P08908).
T5 construct: expressed in transfected cells; host or cells: HA7 cells
T5 sequence (P08908 1-422): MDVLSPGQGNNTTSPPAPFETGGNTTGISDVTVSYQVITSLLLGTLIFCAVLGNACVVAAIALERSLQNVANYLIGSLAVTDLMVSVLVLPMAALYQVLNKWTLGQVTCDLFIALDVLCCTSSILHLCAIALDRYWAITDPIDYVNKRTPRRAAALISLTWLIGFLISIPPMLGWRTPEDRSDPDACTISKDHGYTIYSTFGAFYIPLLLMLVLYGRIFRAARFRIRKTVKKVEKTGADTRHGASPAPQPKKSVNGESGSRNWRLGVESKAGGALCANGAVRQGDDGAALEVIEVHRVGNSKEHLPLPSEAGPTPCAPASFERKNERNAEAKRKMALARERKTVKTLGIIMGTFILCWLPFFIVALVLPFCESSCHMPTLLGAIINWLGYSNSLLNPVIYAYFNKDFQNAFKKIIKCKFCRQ
Put plainly: Binding affinity at cloned human 5HT1A receptor, [3H]8-OH-DPAT (HA7 cells). The procedure: HA7 cells (human receptor) are grown to confluence in DMEM containing 10% fetal calf serum, 0.05% penicillin-streptomycin (pen-strep), and […] of G418. The cells are scraped from the 100 by 20 mm plates and centrifuged at 500·G for 5 min. The pellet is homogenized in 50 mM Tris-HCl, pH 7.7, with a polytron, centrifuged at 27,000·G and resuspended at 10 mg protein/ml in the same buffer. The homogenate is then stored at −70° C. in 1-ml aliquots.
The thawed cells are washed once and resuspended at 10 mg protein/80 ml in 25 mM Tris-HCl containing 100 μM of ascorbic acid and 10 mM of nialamide at pH 7.4. The assay is performed in triplicate in a 96-well plate. To 100 μl of [^3H]8-OH-DPAT (0.5 nM final conc), […] of test compound or buffer and 0.8 ml of cell homogenate (0.1 mg protein/well) is added to each well by a Tomtec Quadra 96. Nonspecific binding is defined using 1 μM dihydroergotamine. The plates are incubated at 25° C. for 60 min, then filtered. The incubation is terminated by rapid filtration through glass fiber filter paper on a Tomtec cell harvester. The filters are washed four times with ice-cold 50 mM Tris-HCl, pH 7.7, dried overnight, bagged with 10 ml scintillation cocktail before counting for 2 min. on a Wallac Betaplate 1205 liquid scintillation counter.

In assay [3] the target is T1, D3 receptor. The assay can be described thus: Binding affinity at cloned human D3 receptor, [3H]YM-09151-2 (CHOp-D3 cells). Set-up: expressed in transfected cells; host or cells: CHOp-D3 cells. To be noted: for Ki: cloned human D3; for D2/D3: ratio of Ki D2 to Ki D3, [3H]YM-09151-2 protocol of Table 4. The protocol: as §2, §3
The target of assay [4] is T3, D2 receptor. Put plainly: Agonist potency by [3H]thymidine incorporation (mitogenesis), D2. To be noted: [3H]thymidine incorporation; for Emax: >80% full agonist, read-out: D2 % Maxm Stim. Type of assay: cell-based. The protocol: (§4) Potential as domaminergenic agonists was assayed by ^3H-thymidine incorporation by standard techniques.
(§5) The EC50 values thus indicate intrinsic activities or functional activities of these compounds. The value of % maximum stimulation indicates whether a compound is a partial agonist or full agonist. Generally, a value greater than 80% is considered as a full agonist and anything less than 80% is considered as a partial agonist.
In general terms: Uptake of a labelled nucleoside into DNA is a usual measure of proliferation.

Another assay has as its target T6, D2L receptor (Homo sapiens, UniProt P14416).
T6 construct: expressed in transfected cells; host or cells: HEK cells
The assay can be described thus: Inhibition constants for binding to cloned D2L receptor expressed in HEK cells, [3H]spiperone. The procedure: as §1

The target in assay [5] is T1, D3 receptor. The assay can be described thus: Agonist potency by [3H]thymidine incorporation (mitogenesis), D3. Type of assay: cell-based. The arrangement: expressed in transfected cells; host or cells: CHOp-D3 cells. To be noted: [3H]thymidine incorporation; for Emax: >80% full agonist, read-out: D3 % Maxm Stim. The procedure: as §4, §5
Another assay addresses T7, 5HT2A receptor (Homo sapiens, UniProt P28223).
T7 construct: expressed in transfected cells
Put plainly: Binding affinity at cloned human 5HT2A receptor, [3H]Ketanserin.

Assay [6] has as its target T1, D3 receptor. Put plainly: Binding affinity at cloned human D3 receptor, [3H]Spiperone (Table 5). Set-up: expressed in transfected cells; host or cells: CHOp-D3 cells. To be noted: for activity at the D3 receptor: Table 5; for Ki: cloned human D3, Table 5.
In assay [7] the target is T3, D2 receptor. Put plainly: Binding affinity at cloned human D2 receptor, [3H]Spiperone (Table 5). Conditions: for affinity for the D2 receptor: Table 5; for Ki: cloned human D2, Table 5.

T7 sequence (P28223 whole entry): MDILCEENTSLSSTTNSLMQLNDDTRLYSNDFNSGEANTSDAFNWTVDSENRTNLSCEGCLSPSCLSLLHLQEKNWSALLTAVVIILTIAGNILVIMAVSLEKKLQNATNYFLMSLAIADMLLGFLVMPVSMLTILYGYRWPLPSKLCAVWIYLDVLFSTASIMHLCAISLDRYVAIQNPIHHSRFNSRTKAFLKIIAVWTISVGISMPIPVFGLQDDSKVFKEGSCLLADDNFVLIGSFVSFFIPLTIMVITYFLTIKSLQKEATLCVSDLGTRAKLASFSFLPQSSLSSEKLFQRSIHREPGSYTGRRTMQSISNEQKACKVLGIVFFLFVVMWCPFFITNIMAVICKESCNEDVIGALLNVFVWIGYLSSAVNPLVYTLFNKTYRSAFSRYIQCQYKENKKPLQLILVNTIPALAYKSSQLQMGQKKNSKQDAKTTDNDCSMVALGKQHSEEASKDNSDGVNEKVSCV
T1 sequence (P35462 whole entry): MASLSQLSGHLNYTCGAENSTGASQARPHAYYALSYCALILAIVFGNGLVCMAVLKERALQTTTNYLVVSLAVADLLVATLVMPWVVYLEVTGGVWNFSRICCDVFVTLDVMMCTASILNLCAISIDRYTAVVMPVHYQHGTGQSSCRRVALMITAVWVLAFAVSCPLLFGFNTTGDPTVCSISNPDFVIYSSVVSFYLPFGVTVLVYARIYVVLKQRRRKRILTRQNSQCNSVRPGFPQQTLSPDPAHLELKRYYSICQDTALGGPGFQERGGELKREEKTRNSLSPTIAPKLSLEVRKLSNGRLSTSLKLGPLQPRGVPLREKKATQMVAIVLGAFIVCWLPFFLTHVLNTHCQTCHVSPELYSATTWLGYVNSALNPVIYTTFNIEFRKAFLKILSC
T3 sequence (P14416 whole entry): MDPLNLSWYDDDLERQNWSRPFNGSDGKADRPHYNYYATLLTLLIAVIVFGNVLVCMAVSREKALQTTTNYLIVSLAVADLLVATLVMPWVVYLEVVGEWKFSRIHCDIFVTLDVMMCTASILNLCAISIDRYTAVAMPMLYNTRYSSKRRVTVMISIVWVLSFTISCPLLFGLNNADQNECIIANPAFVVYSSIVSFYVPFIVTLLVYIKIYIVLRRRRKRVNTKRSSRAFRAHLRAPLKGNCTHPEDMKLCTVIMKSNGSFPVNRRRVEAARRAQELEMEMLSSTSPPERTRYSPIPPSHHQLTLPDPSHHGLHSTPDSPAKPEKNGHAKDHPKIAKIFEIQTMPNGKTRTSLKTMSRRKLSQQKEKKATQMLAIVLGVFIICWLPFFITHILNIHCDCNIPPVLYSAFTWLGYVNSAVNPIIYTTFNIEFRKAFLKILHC
T6 sequence (P14416 whole entry): as above

As a reminder, the Ki is the dissociation constant of the complex between target and ligand, obtained from inhibition or displacement. Low values mean tighter binding, high ones weaker binding. By EC50 is commonly meant the concentration giving half of the maximal effect. A lower EC50 goes with an effect from little substance. In the case of `C#CCN(CCN1CCN(c2ccccc2)CC1)C1CCc2ccc(O)cc2C1` (centres unmarked) [Compound 12a, 7-Hydroxy-1-2-[N-propargyl-(N-(4-phenylpiperazin-1-yl)-ethyl)amino]tetralin], the Ki stood at 0.0142 ± 0.0017 µM at D3 receptor [1]; 2690 nM on 5HT2C receptor; 65.5 nM at D2 receptor [2]; 663 nM at D1 receptor; 27.6 nM on 5HT1A receptor; 23.5 nM at D3 receptor [3]. The values for the Ki on D2L receptor and at 5HT2A receptor were 0.245 ± 0.026 µM and 161 nM, respectively. Also, the D2/D3 at D3 receptor [3] is given as 2.8. Also, the EC50 on D2 receptor [4] stood at 0.00618 ± 0.00018 µM; at D3 receptor [5], 0.00125 ± 8e-05 µM. The Emax stood at 87.2 ± 2.16% on D2 receptor [4] and 94.5 ± 6.17% on D3 receptor [5].
As for `CCCN(CCN1CCN(c2ccccc2)CC1)C1CCc2ccc(O)cc2C1` (centres unmarked) [Compound 15a, 7-Hydroxy-2-[N-propyl-(N-(4-phenylpiperazin-1-yl)-ethyl)amino]tetralin], the inhibition constant (Ki) is 0.00175 ± 0.00034 µM on D3 receptor [1]; > 10000 nM on 5HT2C receptor; 75.5 nM at D2 receptor [2]; > 10000 nM on D1 receptor; 21.4 nM at 5HT1A receptor; 3.2 nM on D3 receptor [3]. Also, the inhibitory constant (Ki) on D2L receptor amounted to 0.213 ± 0.026 µM; on 5HT2A receptor, 1540 nM. Also, the “selectivity for D3 relative to the standard 7-OH-DPAT” value on D3 receptor [3] (protocol used in Table 4) is “more than two fold”. Besides, on D3 receptor [3], the D2/D3 was 25. Moreover, the values for the half-maximal effective concentration (EC50) at D2 receptor [4] and at D3 receptor [5] were 0.00159 ± 6e-05 µM and 0.00097 ± 2e-05 µM, respectively. In addition, the Emax is 105 ± 11.3% on D2 receptor [4] and 84.6 ± 10.8% at D3 receptor [5].
Take `CCCN(CCCCN1CCN(c2cccc(Cl)c2Cl)CC1)C1CCc2ccc(O)cc2C1` (centres unmarked) [Compound 19a, 7-Hydroxy-2-[N-propyl-(N-(4-(2,3-dichlorophenyl)-piperazin-1-yl)-butyl)amino]tetralin]: the inhibition constant Ki at D3 receptor [1] turned out to be 0.00226 ± 0.0005 µM; on 5HT2C receptor, 639 nM; at D2 receptor [2] it was 31.5 nM; at D1 receptor it was 4060 nM; on 5HT1A receptor, 40.6 nM; at D3 receptor [3], 2.66 nM. The figures for the inhibitory constant (Ki) at D2L receptor and at 5HT2A receptor were 0.00878 ± 0.00081 µM and 356 nM, respectively. The D2/D3 at D3 receptor [3] was determined as 15. The 50% effective concentration (EC50) on D2 receptor [4] was 0.00831 ± 0.00069 µM; on D3 receptor [5], 0.00649 ± 0.00246 µM. Also, the Emax on D2 receptor [4] is 80.1 ± 8.15%; on D3 receptor [5], 85.7 ± 1.19%.
For the molecule `C#CCN(CCCCN1CCN(c2cccc(Cl)c2Cl)CC1)C1CCc2ccc(O)cc2C1` (centres unmarked) [Compound 19b, 7-Hydroxy-2-[N-propargyl-(N-(4-(2,3-dichlorophenyl)-piperazin-1-yl)-butyl)amino]tetralin], the inhibition constant (Ki) was found to be 0.00359 ± 0.00058 µM on D3 receptor [1]; 264 nM on 5HT2C receptor; 28.1 nM on D2 receptor [2]; 1720 nM at D1 receptor; 64.4 nM on 5HT1A receptor; 12.7 nM at D3 receptor [3]. Besides, the inhibition constant Ki was found to be 0.00737 ± 0.00027 µM on D2L receptor and 160 nM at 5HT2A receptor. Moreover, on D3 receptor [3], the D2/D3 amounted to 2.3. Moreover, the EC50 came to 0.0118 ± 0.00184 µM on D2 receptor [4] and 0.00308 ± 0.00109 µM at D3 receptor [5]. Moreover, the Emax at D2 receptor [4] came out at 85.7 ± 9.15%; at D3 receptor [5] it was 90.3 ± 15.5%.
As for `CCCN(CCc1ccc(N)cc1)CCN1CCN(c2ccccc2)CC1` [Compound 29a, 4-(2-{[2-(4-Phenyl-piperazin-1-yl)-ethyl]-propyl-amino}-ethyl)-phenylamine], on D3 receptor [6], the “activity at the D3 receptor” value is listed as “some activity” and the inhibition constant Ki is 1150 nM. Also, at D2 receptor [7], the “affinity for the D2 receptor” value is reported as “exceptionally low affinity” and the Ki is 25600 nM.
For `CCCN(CCc1cccc(N)c1)CCN1CCN(c2ccccc2)CC1` [Compound 29b, 3-(2-{[2-(4-Phenyl-piperazin-1-yl)-ethyl]-propyl-amino}-ethyl)-phenylamine] the same measures were “some activity”, 1480 nM, “exceptionally low affinity” and 23500 nM.
In the case of `CCCN(CCc1ccc(NS(=O)(=O)c2ccc(Cl)cc2)cc1)CCN1CCN(c2ccccc2)CC1` [Compound 30a, 4-Chloro-N-[4-(2-{[2-(4-phenyl-piperazin-1-yl)-ethyl]-propyl-amino}-ethyl)-phenyl]-benzenesulfonamide], the inhibition constant (Ki) on D3 receptor [6] is 5.98 ± 0.7 nM; at D2 receptor [7] it was 702 ± 22 nM.
For the molecule `CCCN(CCc1cccc(NS(=O)(=O)c2ccc(Cl)cc2)c1)CCN1CCN(c2ccccc2)CC1` [Compound 30b, 4-Chloro-N-[3-(2-{[2-(4-phenyl-piperazin-1-yl)-ethyl]-propyl-amino}-ethyl)-phenyl]-benzenesulfonamide], the Ki at D3 receptor [6] came to 36.8 ± 5.4 nM; on D2 receptor [7], 552 ± 31 nM.
